Experimental data taken from the supplement of paper PMC10307832.

Columns and labels:
Assay in all cases: relative viability (nuclei count vs DMSO), 5 days (fraction); higher = more cells survive
BI-2536 + Pictilisib = compound: CC[C@@H]1C(=O)N(C)c2cnc(Nc3ccc(C(=O)NC4CCN(C)CC4)cc3OC)nc2N1C1CCCC1 [BI-2536] + CS(=O)(=O)N1CCN(Cc2cc3nc(-c4cccc5[nH]ncc45)nc(N4CCOCC4)c3s2)CC1 [Pictilisib] (partner 1 µM)
Method in brief: (§1)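 Relative viability divides the nuclei count in treated wells by that in vehicle wells. Lung cancer cell lines were seeded in 1536-well plates, dosed by pin tool the next day, and fixed and stained after 5 days in one step with final 0.05% Triton X-100, 1% formaldehyde and 1 ug/ml Hoechst. Dosing was a single drug or a fixed anchor-drug dose plus five library-drug doses (not always all listed) in √10 steps, and values are medians of duplicate plates imaged at 4×.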

[1] = compound: CC1CC(=O)N(C2=CN=C(N=C2N1C3CCCC3)NC4=C(C=C(C=C4)C(=O)NC5CCN(CC5)C)OC)C [NPK76-II-72-1] + CC(=O)c1c(C)c2cnc(Nc3ccc(N4CCNCC4)cn3)nc2n(C2CCCC2)c1=O [Palbociclib] (partner 0.5 µM)
Method in brief: as §1

BI-2536 + Olaparib = compound: CC[C@@H]1C(=O)N(C)c2cnc(Nc3ccc(C(=O)NC4CCN(C)CC4)cc3OC)nc2N1C1CCCC1 [BI-2536] + O=C(c1cc(Cc2n[nH]c(=O)c3ccccc23)ccc1F)N1CCN(C(=O)C2CC2)CC1 [Olaparib] (partner 8 µM)
Method in brief: as §1

BI-2536 + Palbociclib = compound: CC[C@@H]1C(=O)N(C)c2cnc(Nc3ccc(C(=O)NC4CCN(C)CC4)cc3OC)nc2N1C1CCCC1 [BI-2536] + CC(=O)c1c(C)c2cnc(Nc3ccc(N4CCNCC4)cn3)nc2n(C2CCCC2)c1=O [Palbociclib] (partner 0.5 µM)
Method in brief: as §1

Cell Line	relative viability (BI-2536 + Pictilisib; first compound 0.01 µM)	relative viability (BI-2536 + Pictilisib; first compound 0.03162 µM)	relative viability (BI-2536 + Pictilisib; first compound 0.1 µM)	relative viability (BI-2536 + Pictilisib; first compound 0.3162 µM)	relative viability (BI-2536 + Pictilisib; first compound 1 µM)	relative viability ([1]; first compound 0.01 µM)	relative viability ([1]; first compound 0.03162 µM)	relative viability ([1]; first compound 0.1 µM)	relative viability ([1]; first compound 0.3162 µM)	relative viability ([1]; first compound 1 µM)	relative viability (BI-2536 + Olaparib; first compound 0.01 µM)	relative viability (BI-2536 + Olaparib; first compound 0.03162 µM)	relative viability (BI-2536 + Olaparib; first compound 0.1 µM)	relative viability (BI-2536 + Olaparib; first compound 0.3162 µM)	relative viability (BI-2536 + Olaparib; first compound 1 µM)	relative viability (BI-2536 + Palbociclib; first compound 0.01 µM)	relative viability (BI-2536 + Palbociclib; first compound 0.03162 µM)	relative viability (BI-2536 + Palbociclib; first compound 0.1 µM)	relative viability (BI-2536 + Palbociclib; first compound 0.3162 µM)	relative viability (BI-2536 + Palbociclib; first compound 1 µM)
NCI-H2228	0.39	0.374	0.218	0.13	0.165	0.759	0.912	0.729	0.6	0.747	0.596	0.553	0.141	0.118	0.123	0.749	0.618	0.232	0.157	0.111
NCI-H2347	0.471	0.523	0.596	0.463	0.32	0.388	0.425	0.389	0.433	0.465	0.537	0.501	0.531	0.471	0.405	0.471	0.426	0.369	0.385	0.387
NCI-H2405	0.369	0.391	0.265	0.0965	0.201	0.528	0.554	0.514	0.514	0.561	0.855	0.547	0.325	0.281	0.416	0.514	0.509	0.359	0.284	0.349
NCI-H3122	0.55	0.555	0.153	0.23	0.201	0.183	0.18	0.179	0.194	0.213	0.621	0.595	0.276	0.131	0.146	0.191	0.175	0.171	0.132	0.159
PC-3 [JPC-3]	0.682	0.769	0.441	0.268	0.291	0.562		0.519	0.549	0.597	1.22	0.896	0.582	0.327	0.369	0.54	0.828	0.5	0.416	0.424
PC-14	0.688	0.563	0.156	0.0423	0.0236	0.514	0.593	0.438	0.505	0.545	0.258	0.155	0.0592	0.0538	0.0392	0.458	0.489	0.0853	0.0424	0.0288
RERF-LC-KJ	0.565	0.48	0.249	0.145	0.206	0.906	1.12	1.06	1.08	1.18	0.901	0.571	0.24	0.201	0.223	1.09	0.949	0.491	0.266	0.241
SK-LU-1	0.499	0.62	0.42	0.201	0.157	0.374	0.374	0.371	0.35	0.417	0.418	0.503	0.302	0.179	0.167	0.328	0.419	0.323	0.202	0.221
SK-MES-1	0.357	0.374	0.304	0.157	0.127	0.325	0.342	0.26	0.313	0.385	0.72	0.656	0.199	0.165	0.177	0.345	0.301	0.187	0.222	0.208
SW 1573	0.477	0.479	0.263	0.142	0.118	0.35	0.486	0.399	0.371	0.387	0.446	0.266	0.12	0.1	0.0718	0.347	0.237	0.172	0.116	0.0925
